# Data from PubChem BioAssay AID2060912 (Molecular Pharmacology Branch, DTP, NCI, 2025).
# Test system: HUVEC/MSC spheroids viability
# Test: Human HUVEC/MSC cell line growth inhibition [KRAS2];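 as to viability, T/C: percent of DMSO vehicle control luminescence so 100% = untreated viability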
# Conditions: for viability, T/C: stronger effect = lower value
# Text: Multicellular complex tumor spheroid response to RAS pathway inhibitors in combination with a targeted agents in patient-derived cell lines with oncogenic KRAS variants from multiple cancer types
# A high-throughput screen of multi-cell type tumor spheroids was designed to identify active combinations of targeted small molecules and KRAS pathway inhibitors. Complex spheroids include a stromal component modeled by human endothelial cells (HUVEC) and fibroblasts modeled by human mesenchymal stem cells (MSCs). The concentration ranges selected for each drug and investigational agent were based upon clinically achievable concentrations if the clinical Cmax of the agent was known. * [This particular assayID is a followup dataset requested by reviewers of the manuscript. It is a test of the HUVEC and MSC without the tumor cells, and was conducted using different drug plates and a different plate layout.]
# Compounds. The drugs and investigational agents: BI-3406 (NSC825286), BAY-293 (NSC824723), batoprotafib (TNO155; NSC825523), sotorasib (AMG 510; NSC818433), MRTX1257 (NSC819558), elimusertib (BAY 1895344; NSC800525), molibresib (GSK525762; NSC774829), temuterkib (LY3214996; NSC803410), venetoclax (NSC766270), alisertib (NSC759677), olaparib (NSC753686), talazoparib (NSC767125), erdafitinib (NSC781556), ipatasertib (NSC767898), cabozantinib (NSC761068), nintedanib (NSC756659), abemaciclib (NSC768073), docetaxel (NSC628503), trametinib (NSC758246), and sapanisertib (NSC764658) were obtained from the National Cancer Institute (NCI) Developmental Therapeutics Program Chemical Repository. The FDA-approved anticancer drug set is available from the Developmental Therapeutics Program. […] The stock solutions were prepared in dimethyl sulfoxide (DMSO, Sigma-Aldrich, St. Louis, MO, cat. D2650) at 800-fold the tested concentration and stored at -70 degrees C prior to their use. All drugs and investigational agents were tested over a range starting from a high concentration at or near the clinical Cmax and decreasing in half-log increments. If the clinical Cmax for an agent had not been determined, the highest concentration tested was 10 microM.
# Cell Culture. All cells were maintained in an incubator at 37 degrees C and 5% CO2 with 95% humidity. The PDC lines were cultured according to standard operating procedures established by the NCI PDMR (https://pdmr.cancer.gov/sops/default.htm). Briefly, all PDCs were thawed and cultured in Matrigel-coated flasks prepared with a working solution of 1X Ham's F-12 nutrient mix, without supplementation (Invitrogen, Waltham, MA, cat. 11765054), 100 U/mL penicillin-streptomycin (Invitrogen, cat. 15140122), and 2.5% Matrigel (Corning Inc., Corning, NY, cat. 354248) for the first three passages. All PDCs were cultured in complete DMEM/F-12 media containing advanced DMEM/F-12 (Invitrogen, cat. 12634028), 4.9% defined fetal bovine serum, heat inactivated (HyClone Laboratories Inc., Logan, UT, cat. SH30070.03HI), 389 ng/mL hydrocortisone (Sigma-Aldrich, cat. H4001), 9.7 ng/mL human EGF recombinant protein (Invitrogen, cat. PHG0313), 23.4 microg/mL adenine (Sigma-Aldrich, cat. A2786), 97.3 U/mL penicillin-streptomycin (Invitrogen, cat. 15140122), 1.9 mM L-glutamine (Invitrogen, cat. 25030081), and 9.7 microM Y-27632 dihydrochloride (Tocris Bioscience, Bristol, United Kingdom, cat. 1254). The PDCs were cultured in complete DMEM/F12 media without 9.7 microM Y-27632 dihydrochloride for at least two passages prior to the screen. The established cell line HOP-62 was cultured in RPMI 1640 medium, HEPES (Invitrogen, cat. 22400105) with 10% defined fetal bovine serum (HyClone Laboratories Inc., cat. SH30070.03) and 2 mM L-glutamine (Invitrogen, cat. 25030081). The pooled donor HUVEC were cultured in endothelial cell growth medium 2 (PromoCell, Heidelberg, Germany, cat. C-22011) and the hMSC were cultured in mesenchymal stem cell growth medium 2 (PromoCell, cat. C-28009). […]
# [1] = curve of first compound, second compound 0.0316 µM
# [2] = curve of first compound, second compound 0.1 µM
# [3] = curve of first compound, second compound 0.316 µM
# [4] = curve of first compound, second compound 1 µM
# [5] = curve of first compound, second compound 3.16 µM
# [6] = curve of first compound, second compound 10 µM
# [7] = second compound 0.0316 µM, first compound 0.0316 µM
# [8] = second compound 0.0316 µM, first compound 0.1 µM
# [9] = second compound 0.0316 µM, first compound 0.316 µM
# [10] = second compound 0.0316 µM, first compound 1 µM
# [11] = second compound 0.0316 µM, first compound 3.16 µM
# [12] = second compound 0.0316 µM, first compound 10 µM
# [13] = second compound 0.1 µM, first compound 0.0316 µM
# [14] = second compound 0.1 µM, first compound 0.1 µM
# [15] = second compound 0.1 µM, first compound 0.316 µM
# [16] = second compound 0.1 µM, first compound 1 µM
# [17] = second compound 0.1 µM, first compound 3.16 µM
# [18] = second compound 0.1 µM, first compound 10 µM
# [19] = second compound 0.316 µM, first compound 0.0316 µM
# [20] = second compound 0.316 µM, first compound 0.1 µM
# [21] = second compound 0.316 µM, first compound 0.316 µM
# [22] = second compound 0.316 µM, first compound 1 µM
# [23] = second compound 0.316 µM, first compound 3.16 µM
# [24] = second compound 0.316 µM, first compound 10 µM
# [25] = second compound 1 µM, first compound 0.0316 µM
# [26] = second compound 1 µM, first compound 0.1 µM
# [27] = second compound 1 µM, first compound 0.316 µM
# [28] = second compound 1 µM, first compound 1 µM
# [29] = second compound 1 µM, first compound 3.16 µM
# [30] = second compound 1 µM, first compound 10 µM
# [31] = second compound 3.16 µM, first compound 0.0316 µM
# [32] = second compound 3.16 µM, first compound 0.1 µM
# [33] = second compound 3.16 µM, first compound 0.316 µM
# [34] = second compound 3.16 µM, first compound 1 µM
# [35] = second compound 3.16 µM, first compound 3.16 µM
# [36] = second compound 3.16 µM, first compound 10 µM
# [37] = second compound 10 µM, first compound 0.0316 µM
# [38] = second compound 10 µM, first compound 0.1 µM
# [39] = second compound 10 µM, first compound 0.316 µM
# [40] = second compound 10 µM, first compound 1 µM
# [41] = second compound 10 µM, first compound 3.16 µM
# [42] = second compound 10 µM, first compound 10 µM
smiles,measurement,setting,value
CC1(C)CCC(CN2CCN(c3ccc(C(=O)NS(=O)(=O)c4ccc(NCC5CCOCC5)c([N+](=O)[O-])c4)c(Oc4cnc5[nH]ccc5c4)c3)CC2)=C(c2ccc(Cl)cc2)C1 + CNCc1ccccc1-c1csc(C(C)Nc2nc(C)nc3cc(OC)c(OC)cc23)c1,IC50,[1],4.27 µM
same,IC50,[2],4.11 µM
same,IC50,[3],4.04 µM
same,IC50,[4],4.92 µM
same,IC50,[5],5.27 µM
same,IC50,[6],< 0.0316 µM
same,"viability, T/C",[7],101%
same,"viability, T/C",[8],111%
same,"viability, T/C",[9],101%
same,"viability, T/C",[10],94.2%
same,"viability, T/C",[11],67.1%
same,"viability, T/C",[12],1.69%
same,"viability, T/C",[13],87.2%
same,"viability, T/C",[14],106%
same,"viability, T/C",[15],93.7%
same,"viability, T/C",[16],87%
same,"viability, T/C",[17],63.2%
same,"viability, T/C",[18],5.65%
same,"viability, T/C",[19],79.8%
same,"viability, T/C",[20],76.3%
same,"viability, T/C",[21],97.8%
same,"viability, T/C",[22],104%
same,"viability, T/C",[23],62.8%
same,"viability, T/C",[24],2.84%
same,"viability, T/C",[25],75.4%
same,"viability, T/C",[26],73.7%
same,"viability, T/C",[27],90.9%
same,"viability, T/C",[28],76.6%
same,"viability, T/C",[29],80.2%
same,"viability, T/C",[30],2.99%
same,"viability, T/C",[31],78.3%
same,"viability, T/C",[32],99.6%
same,"viability, T/C",[33],82%
same,"viability, T/C",[34],92.2%
same,"viability, T/C",[35],95.9%
same,"viability, T/C",[36],0.31%
same,"viability, T/C",[37],0.33%
same,"viability, T/C",[38],0.35%
same,"viability, T/C",[39],0.51%
same,"viability, T/C",[40],0.51%
same,"viability, T/C",[41],0.36%
same,"viability, T/C",[42],0.57%
CC1(C)CCC(CN2CCN(c3ccc(C(=O)NS(=O)(=O)c4ccc(NCC5CCOCC5)c([N+](=O)[O-])c4)c(Oc4cnc5[nH]ccc5c4)c3)CC2)=C(c2ccc(Cl)cc2)C1 + C=CC(=O)N1CCN(c2nc(=O)n(-c3c(C)ccnc3C(C)C)c3nc(-c4c(O)cccc4F)c(F)cc23)C(C)C1,IC50,[1],4.57 µM
same,IC50,[2],4.7 µM
same,IC50,[3],5.75 µM
same,IC50,[4],5.28 µM
same,IC50,[5],5.97 µM
same,IC50,[6],5.96 µM
same,"viability, T/C",[7],105%
same,"viability, T/C",[8],92%
same,"viability, T/C",[9],95.4%
same,"viability, T/C",[10],85.4%
same,"viability, T/C",[11],75.2%
same,"viability, T/C",[12],2.28%
same,"viability, T/C",[13],114%
same,"viability, T/C",[14],101%
same,"viability, T/C",[15],114%
same,"viability, T/C",[16],85.7%
same,"viability, T/C",[17],80.1%
same,"viability, T/C",[18],3.17%
same,"viability, T/C",[19],104%
same,"viability, T/C",[20],100%
same,"viability, T/C",[21],97.2%
same,"viability, T/C",[22],115%
same,"viability, T/C",[23],97.3%
same,"viability, T/C",[24],6.37%
same,"viability, T/C",[25],144%
same,"viability, T/C",[26],125%
same,"viability, T/C",[27],125%
same,"viability, T/C",[28],115%
same,"viability, T/C",[29],86.5%
same,"viability, T/C",[30],6.99%
same,"viability, T/C",[31],97%
same,"viability, T/C",[32],123%
same,"viability, T/C",[33],104%
same,"viability, T/C",[34],113%
same,"viability, T/C",[35],101%
same,"viability, T/C",[36],8.7%
same,"viability, T/C",[37],115%
same,"viability, T/C",[38],143%
same,"viability, T/C",[39],162%
same,"viability, T/C",[40],119%
same,"viability, T/C",[41],93.6%
same,"viability, T/C",[42],15.4%
CN(C)C/C=C/C(=O)Nc1cc2c(Nc3ccc(F)c(Cl)c3)ncnc2cc1O[C@H]1CCOC1,"viability, T/C",compound 0.000316 µM,99.9% [middle of 5 runs]
same,"viability, T/C",compound 0.001 µM,91% [middle of 5 runs]
same,"viability, T/C",compound 0.00316 µM,90.5% [middle of 5 runs]
same,"viability, T/C",compound 0.0316 µM,85.3% [middle of 5 runs]
same,IC50,curve of compound,> 0.1 µM
